Measurements from patent publication US9359281B2, “Enantiomers of 2-hydroxy derivatives of fatty acids” (UNIVERSITAT DE LES ILLES BALEARS, priority 2011, dated 2016).

Tests used:
SF767 cells = assay: Levels of SM in cell membranes, SF767; format: cell-based, human
Method: (§1) At the same time, we have studied the anti-tumoral effect on these and other tumoral lines (see Table 2). The cells were treated in vehicle (water with 5% ethanol, control) or with compound 2OHOA for 24 hours in a concentration of 200 μM. The values of the ordinate axis represent the average±ESM (error standard mean for a number of experiments n=3-5) of SM levels (percent of total phospholipids), determined by chromatographic processes (followed by spectroscopy and image analysis), as a percentage of the total number of lipids compared with untreated cells (control). […] In addition to the techniques for measuring enzyme activity and levels of SM described above, other techniques have been tested which lead to very similar results as, gas chromatography, confocal microscopy, fluorescence spectroscopy, etc.
(§2) The levels of SM, cultivated in the absence (control) or presence of 200 μM of [−]2OHOA, in normal cell membranes (MRC-5 and IMR90) were measured, and also in several types of tumoral cells (see Table 2). In all cases, we detected that the membranes of tumoral cells have SM levels of about half or a third of that in normal cells (FIG. 1). […] For example, the spectrophotometry determination of solution fluorescence of the SM levels is a very simple, quick and efficient analysis method (FIG. 1D). […]

1321N1 cells = assay: Levels of SM in cell membranes, 1321N1; format: cell-based, human
Method: as §1, §2

A549 cells = assay: Levels of SM in cell membranes, A549; format: cell-based, human
Method: as §1, §2

Jurkat cells = assay: Levels of SM in cell membranes, Jurkat; format: cell-based, human
Method: as §1, §2

MRC-5 cells = assay: Levels of SM in cell membranes, MRC-5; format: cell-based, human
Method: as §1, §2

U118 cells = assay: Cell growth inhibition, U118; format: cell-based, human; design: key to Effect (anti-proliferation effect): +: inhibition of cell growth; −: absence of effect; conditions: for IC50: U118, sodium salt form
Source text: (§3) At this respect, concentrations which inhibit growth of tumour cells (IC50) are lower for the enantiomer S ([−]) in all studied tumour lines (Table 5). […] In all of the cases, the molecules employed were in the form of sodium salt.

HepG2 cells = assay: Cell growth inhibition, HepG2; format: cell-based, human; design: key to Effect (anti-proliferation effect): +: inhibition of cell growth; −: absence of effect; conditions: for IC50: HepG2, sodium salt form
Source text: as §3

MDA-MB-231 cells = assay: Cell growth inhibition, MDA-MB-231; format: cell-based, human; design: key to Effect (anti-proliferation effect): +: inhibition of cell growth; −: absence of effect; conditions: for IC50: MDA-MB-231, sodium salt form
Source text: as §3

HeLa cells = assay: Cell growth inhibition, HeLa; format: cell-based, human; design: key to Effect (anti-proliferation effect): +: inhibition of cell growth; −: absence of effect; conditions: for IC50: sodium salt form
Source text: as §3

[1] = Toxicity and side effects (symptoms) in treated tumour-bearing mice; format: in vivo; conditions: for Toxicity: symptoms registered / Toxicity: Behaviour symptoms, percentage of animals / Toxicity: Diarrhoea, percentage of animals: 15 days
Source text: This example recounts the study carried out on immuno-depressed mice infected with human glioma (SF767) cells and treated for 15 days (orally) with the indicated dose (Table 3).

[2] = Plasmatic glucose levels in SHR rats; format: in vivo; conditions: 600 mg/kg, 12 h, 15 days, by mouth
Method: E. Effects on […] (plasmatic glucose levels): SHR rats were treated with vehicle (control), racemic 2OHOA and their optical isomers [−] 2OHOA and [+]2OHOA (600 mg/kg, 12 h, 15 days, by mouth). The racemic compound and the [−]
(§4) What is more, we studied the effect of the isomers above on arterial pressure, body weight, and the level of cholesterol, triglycerides and glycemia (glucose in plasma) in SHR rats SHR (FIGS. 8B, 8C and 8D and 8E). […] Similarly, during 1 and 5 days of treatment, rats treated with the racemic loosed 11 gram of weight (approximately a 3% of their body weight), whereas animals of the group treated with enantiomer [−]2OHOA loosed 21 grams and animals of the group treated with enantiomer [+]2OHOA only loosed 7 grams of weight. On the other hand, a higher effect of enantiomer [+]2OHOA in the reduction of triglyceride (TG) and total cholesterol (CHOt) levels was observed (FIG. 8D) At this respect, plasmatic basal levels of TG in SHR rats are of 108 mg/dl and were reduced to 56 mg/dl after 2 weeks treatment […]. On the other hand, treatment with enantiomer [+]2OHOA inducted a reduction of plasmatic TG levels to 47 mg/dl, whereas enantiomer [−]2OHOA only produced a modest reduction to 81 mg/dl. In parallel, levels of CHOt were reduced from 73 mg/dl to 43 mg/dl (racemic), 36 mg/dl (enantiomer [+]2OHOA) and 59 mg/dl (enantiomer [−]2OHOA), respectively.

[3] = test system: hypertense rats (strain SHR); assay: Systolic arterial pressure in SHR rats; format: in vivo; conditions: 600 mg/kg every 12 h, 15 days, orally
Method: B. Effects on arterial pressure: hypertense rats (strain SHR) were treated with 2OHOA racemic (+/−) and its optic isomers [−]2OHOA and [+]2OHOA (600 mg/kg every 12 h, 15 days, orally). […] Values of average±EEM systolic pressure (n=6) are shown.
as §4, with “In parallel, levels of CHOt were reduced from 73 mg/dl to 43 mg/dl (racemic), 36 mg/dl (enantiomer [+]2OHOA) and 59 mg/dl (enantiomer [−]2OHOA), respectively.” left out

Row | Structure (SMILES) | IC50 (U118 cells) [µM] | IC50 (HepG2 cells) [µM] | IC50 (MDA-MB-231 cells) [µM] | IC50 (HeLa cells) [µM] | Toxicity: symptoms registered ([1]; 50 mg/kg orally) | Toxicity: symptoms registered ([1]; 75 mg/kg orally) | Toxicity: symptoms registered ([1]; 100 mg/kg orally) | Toxicity: symptoms registered ([1]; 150 mg/kg orally) | Toxicity: Behaviour symptoms, percentage of animals ([1]; 400 mg/kg orally) | Toxicity: Diarrhoea, percentage of animals ([1]; 400 mg/kg orally) | Toxicity: Behaviour symptoms, percentage of animals ([1]; 600 mg/kg orally) | Toxicity: Diarrhoea, percentage of animals ([1]; 600 mg/kg orally) | plasma glucose levels (glycemia) [2] | Toxicity: Behaviour symptoms, percentage of animals ([1]; 200 mg/kg orally) | Toxicity: Diarrhoea, percentage of animals ([1]; 200 mg/kg orally) | effect on systolic arterial pressure [3] | other results
1 | CCCCCCCC/C=C\CCCCCCC(O)C(=O)O (stereo not shown) [[−]2OHOA] [[−] HOOC—HOCH—(CH2)6—(CH═CH—CH2)1—(CH2)6—CH3] | 97.8 | 32.9 | 145 | 74.5 | no side effects and No | No | No | No | Behaviour 16% | Diarrhoea 16% | Behaviour 50% | Diarrhoea 32% | significant reductions | – | – | – | % SM after treatment (SF767 cells; SF767, 200 μM [−]2OHOA): 24%; % SM after treatment (1321N1 cells; 1321N1, 200 μM [−]2OHOA): 27%; % SM after treatment (A549 cells; A549, 200 μM [−]2OHOA): 33%; % SM after treatment (Jurkat cells; 200 μM [−]2OHOA): 27%; % SM after treatment (MRC-5 cells; MRC-5 non-tumoral fibroblast, 200 μM [−]2OHOA): 24%; Effect (anti-proliferation effect) (U118 cells; U118): +; Effect (anti-proliferation effect) (HepG2 cells; HepG2): +; Effect (anti-proliferation effect) (MDA-MB-231 cells; MDA-MB-231): +; Effect (anti-proliferation effect) (HeLa cells): +; Toxicity: symptoms registered ([1]; 200 mg/kg orally): No
2 | CCCCCCCC/C=C\CCCCCCC(O)C(=O)O (stereo not shown) [[+]2OHOA] [[+]HOOC—HOCH—(CH2)6—(CH═CH—CH2)1—(CH2)6—CH3] | 212 | 76.7 | 328 | 206 | No | No | No | No | Behaviour 32% | Diarrhoea 16% | Behaviour 50% | Diarrhoea 66% | reduction without statistical significance | Behaviour 16% | Diarrhoea 16% | considerable therapeutic effect but of lower amplitude | –
3 | CCCCCCCC/C=C\CCCCCCC(O)C(=O)O (racemic) [2OHOA, 2-hydroxyoleic acid] | – | – | – | – | No | No | No | No | Behaviour 16% | Diarrhoea 32% | Behaviour 50% | Diarrhoea 50% | significant reductions | Behaviour 16% | Diarrhoea 16% | considerable therapeutic effect but of lower amplitude | synthesis of SM (SF767 cells; SF767, 200 μM, 24 hours): significant increase; synthesis of SM (1321N1 cells; 1321N1, 200 μM, 24 hours): significant increase; synthesis of SM (A549 cells; A549, 200 μM, 24 hours): significant increase; synthesis of SM (Jurkat cells; 200 μM, 24 hours): significant increase; synthesis of SM (MRC-5 cells; MRC5, 200 μM, 24 hours): not in non-tumoral cells; IC50 (U118 cells; Homo sapiens): 142 µM; IC50 (HepG2 cells; Homo sapiens): 41.4 µM; IC50 (MDA-MB-231 cells; Homo sapiens): 244 µM; IC50 (HeLa cells; Homo sapiens): 127 µM; side effects ([1]; 600 mg/kg, 15 days orally): important side effects
